{
  "source": "paper PMC3988085",
  "about": "“In Vitro Metabolism of 20(R)-25-Methoxyl-Dammarane-3, 12, 20-Triol from Panax notoginseng in Human, Monkey, Dog, Rat, and Mouse Liver Microsomes” (PLoS ONE, 2014)",
  "key": {"CYP3A4": {"target": "CYP3A4 (Homo sapiens, UniProt P08684)", "sequence (P08684 whole entry)": "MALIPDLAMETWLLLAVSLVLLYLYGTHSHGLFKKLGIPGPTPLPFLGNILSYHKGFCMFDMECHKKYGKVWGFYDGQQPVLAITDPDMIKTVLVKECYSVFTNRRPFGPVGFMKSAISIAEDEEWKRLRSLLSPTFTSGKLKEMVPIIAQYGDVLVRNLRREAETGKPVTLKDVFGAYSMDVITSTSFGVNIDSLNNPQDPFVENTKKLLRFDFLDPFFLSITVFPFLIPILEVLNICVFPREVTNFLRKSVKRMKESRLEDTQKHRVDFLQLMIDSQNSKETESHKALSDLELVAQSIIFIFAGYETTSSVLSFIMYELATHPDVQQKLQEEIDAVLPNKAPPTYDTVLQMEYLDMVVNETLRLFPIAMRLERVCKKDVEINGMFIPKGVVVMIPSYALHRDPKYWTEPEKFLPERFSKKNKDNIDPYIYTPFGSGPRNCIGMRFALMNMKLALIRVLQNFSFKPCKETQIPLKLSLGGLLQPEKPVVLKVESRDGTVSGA", "assay": "Inhibition of CYP3A4 catalytic activity by 25(R)-OCH3-PPD", "assay_type": "in vitro ADME"}, "[1]": {"details": "rat, in vivo, 10 mg/kg; cited from earlier work"}, "[2]": {"test_system": "human liver microsomes (HLM)", "assay": "Metabolite formation in human liver microsomes, 60 min", "assay_type": "in vitro ADME", "details": "HLM 1 mg/ml, 50 µM 25(R)-OCH3-PPD, NADPH", "protocol": "(§1) 25(R)-OCH3-PPD were incubated in hepatic microsomes to examine the potential P450-mediated metabolism. Stock solutions of 2 mM 25(R)-OCH3-PPD was prepared in methanol. The final methanol concentration in the incubation was 2.5% (v/v). The liver microsomes were carefully thawed on ice before the experiment.\n(§2) For NADPH dependent oxidative metabolism study, the reaction media contained 1 mg/ml of microsomal proteins, 10 mM G-6-P, 10 mM MgCl2, 1 U/ml G-6-PDH, 50 µM concentration of 25(R)-OCH3-PPD in potassium phosphate buffer (pH 7.4; 0.1 M) in a total volume of 200 µl. Negative control incubations containing no NADPH-regenerating system were conducted. All incubations were performed at 37°C in a shaking water bath for 60 min.\n(§3) After 5 min preincubation at 37°C, the incubation reactions were initiated with the addition of microsome proteins. After undergoing incubation for 60 min, the reactions were terminated with an equal volume of ice-cold acetonitrile and 10 µl diazepam (5 µg/ml, internal standard) was added. This sample was vortex-mixed and centrifuged at 14,000 g for 5 min. […] The residue was reconstituted in 100 µl of methanol with 0.1% formic acid, centrifuged 10 min at 18000 rpm and then an aliquot 5 µL of the supernatant was directly injected onto the HPLC-MS system for quanlitative or quantitative analysis."}, "[3]": {"test_system": "cynomolgus monkey liver microsomes (CyLM)", "assay": "Metabolite formation in monkey liver microsomes, 60 min", "assay_type": "in vitro ADME", "details": "CyLM 1 mg/ml, 50 µM 25(R)-OCH3-PPD, NADPH", "protocol": "as §1, §2, §3"}, "[4]": {"test_system": "dog liver microsomes (DLM)", "assay": "Metabolite formation in dog liver microsomes, 60 min", "assay_type": "in vitro ADME, beagles", "details": "DLM 1 mg/ml, 50 µM 25(R)-OCH3-PPD, NADPH", "protocol": "as §1, §2, §3"}, "[5]": {"test_system": "rat liver microsomes (RLM)", "assay": "Metabolite formation in rat liver microsomes, 60 min", "assay_type": "in vitro ADME, Sprague-Dawley rats", "details": "RLM 1 mg/ml, 50 µM 25(R)-OCH3-PPD, NADPH", "protocol": "as §1, §2, §3"}, "[6]": {"test_system": "mouse liver microsomes (MLM)", "assay": "Metabolite formation in mouse liver microsomes, 60 min", "assay_type": "in vitro ADME, CD-1 mice", "details": "MLM 1 mg/ml, 50 µM 25(R)-OCH3-PPD, NADPH", "protocol": "as §1, §2, §3"}, "CYP3A": {"test_system": "CYP3A", "assay": "Chemical inhibition study in human hepatic microsomes (ketoconazole)", "assay_type": "in vitro ADME", "protocol": "The chemical inhibition study was performed by adding each of the specific inhibitors of P450 enzymes into the incubation of 25(R)-OCH3-PPD (3 or 10 µM) in 0.25 mg/ml HLM incubation systems containing an NADPH-regenerations system as described above. The chemical inhibitors and concentration were selected on the basis of previous reports and are as follows: α-naphthoflavone (10.0 µM) for CYP1A2, quercetin (10 µM) for CYP2C8, sulfaphenazole (10.0 µM) for CYP2C9, ticlopidine (5 µM) for CYP2C19, quinidine (10.0 µM) CYP2D6, diethyl dithiocarbamate (20 µM) for CYP2E1, and ketoconazole (0.1, 0.25, 0.5, 1 and 5 µM) for CYP3A.\nThe inhibitors were dissolved in dimethyl sulfoxide, and the final concentration of dimethyl sulfoxide in the incubation was 1% (v/v). The final incubation volume was 200 µl. Microsomes were preincubated for 5 min with a NADPH-regenerating system at 37°C, the reactions were initiated with the addition of 25(R)-OCH3-PPD and inhibitor. The reactions were terminated with an equal volume of ice-cold acetonitrile after 30 min of incubation. Parallel incubations without chemical inhibitors served as control. Samples were prepared as mentioned above to measure the concentration of parent and the metabolites by HPLC-MS/MS analysis."}},
  "data": [
    {"compound": "COC(C)(C)CCC[C@@](C)(O)C1CC[C@]2(C)C1[C@H](O)CC1[C@@]3(C)CC[C@H](O)C(C)(C)C3CC[C@]12C", "note": "(stereo partly drawn) [25(R)-OCH3-PPD, 20(R)-25-methoxyl-dammarane-3β, 12β, 20-triol]", "values": [
      {"measurement": "inhibition of the CYP3A4 catalytic activity", "setting": "CYP3A4", "value": "NADPH and concentration-dependent"}
    ]},
    {"compound": "COC(C)(C)CCC[C@](C)(O)[C@H]1CC[C@]2(C)[C@@H]1[C@H](O)C[C@@H]1[C@@]3(C)CC[C@H](O)C(C)(C)[C@@H]3CC[C@]12C", "note": "[25(S)-OCH3-PPD, 20(S)-25-methoxyl-dammarane-3beta, 12beta, 20-triol]", "values": [
      {"measurement": "absolute bioavailability", "setting": "[1]", "value": 19.7, "unit": "%"}
    ]},
    {"compound": "CC(C)(O)CCC[C@@](C)(O)C1CC[C@]2(C)C1[C@H](O)CC1[C@@]3(C)CC[C@H](O)C(C)(C)C3CC[C@]12C", "note": "(stereo partly drawn) [Metabolite M1]", "values": [
      {"measurement": "relative amount of metabolite formed", "setting": "[2]", "value": "minor metabolite"},
      {"measurement": "relative amount of metabolite formed", "setting": "[3]", "value": "minor metabolite"},
      {"measurement": "relative amount of metabolite formed", "setting": "[4]", "value": "intermediate relative amount"},
      {"measurement": "relative amount of metabolite formed", "setting": "[5]", "value": "dominant metabolite"},
      {"measurement": "relative amount of metabolite formed", "setting": "[6]", "value": "dominant metabolite"}
    ]},
    {"compound": "CC(=O)N1CCN(c2ccc(OCC3COC(Cn4ccnc4)(c4ccc(Cl)cc4Cl)O3)cc2)CC1", "note": "(stereo not drawn) [ketoconazole]", "values": [
      {"measurement": "effect on the oxidative metabolism of 25(R)-OCH3-PPD", "setting": "CYP3A; HLM 0.25 mg/ml, 25(R)-OCH3-PPD 10 µM, 30 min", "value": "significant inhibitory effect"},
      {"measurement": "inhibition of formation of M5", "setting": "CYP3A; HLM, ketoconazole 0.1 µM", "value": "completely"},
      {"measurement": "effect on formation of M1 and M6", "setting": "CYP3A; HLM, ketoconazole 5 µM", "value": "inhibited"},
      {"measurement": "effect on formation of M2, M3, M4, M5, M7", "setting": "CYP3A; HLM, ketoconazole 0.1-5 µM, concentration dependent", "value": "inhibited"},
      {"measurement": "effect on formation of M1 and M6", "setting": "CYP3A; HLM, ketoconazole 0.1–1 µM", "value": "activated"}
    ]}
  ]
}
